# In patent US9884048B2, “ERK inhibitors” (Merck Sharp & Dohme Corp., priority 2014, dated 2018):
# pIC50: −log10 of the molar value.
# Molecular target: phosphorylated active hERK2 enzyme (Homo sapiens (Human), UniProt P28482)
# Conditions: not given
# Sequence of phosphorylated active hERK2 enzyme (P28482 whole entry): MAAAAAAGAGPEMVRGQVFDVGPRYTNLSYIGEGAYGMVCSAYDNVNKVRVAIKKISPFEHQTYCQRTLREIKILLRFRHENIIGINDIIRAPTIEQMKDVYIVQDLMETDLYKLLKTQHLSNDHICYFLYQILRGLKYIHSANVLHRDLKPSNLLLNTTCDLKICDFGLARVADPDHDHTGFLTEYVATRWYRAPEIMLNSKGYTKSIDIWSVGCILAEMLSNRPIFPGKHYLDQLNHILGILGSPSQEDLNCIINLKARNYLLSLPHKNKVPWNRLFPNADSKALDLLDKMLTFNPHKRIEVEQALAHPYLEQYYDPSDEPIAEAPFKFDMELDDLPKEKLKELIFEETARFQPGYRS
row,pIC50,Structure (SMILES)
1,7.37,"Cc1cc(-n2ncc3cc(NC(=O)N[C@H]4CCC[C@H]4c4ccc(F)cc4)ncc32)ccn1 (racemic) [Example 153, Racemic cis 1-[(1S,2S) and (1R,2R)-2-(4-fluorophenyl)cyclopentyl]-3-[1-(2-methylpyridin-4-yl)-1H-pyrazolo[3,4-c]pyridin-5-yl]urea]"
2,6.53,"C[C@@H](NC(=O)Nc1cc2cnn(CC3CCCC3)c2c(CO)n1)c1ccccc1 [Example 303, 1-[1-(cyclopentylmethyl)-7-(hydroxymethyl)-1H-pyrazolo[3,4-c]pyridin-5-yl]-3-[(1R)-1-phenylethyl]urea]"

# Same assay, conditions: ERK2 IC50, IMAP-FP assay; 0.5 nM hERK2, 30 μM ATP; 10 point titration, 3 μM starting concentration
row,pIC50,Structure (SMILES)
1,8.44,"Cc1cc(-n2ncc3cc(NC(=O)N[C@H]4CCCC[C@@H]4c4ccccc4)ncc32)ccn1 (racemic) [Example 151, Racemic trans 1-[1-(2-methylpyridin-4-yl)-1H-pyrazolo[3,4-c]pyridin-5-yl]-3-[(1S,2R) and (1R,2S)-2-phenylcyclohexyl]urea]"

# Same assay, conditions: read-out: ERK2 IC50; IMAP-FP assay; 0.5 nM hERK2, 30 μM ATP; 10 point titration, 3 μM starting concentration
row,Structure (SMILES),pIC50
1,"Cc1cc(-n2ncc3cc(NC(=O)N[C@H]4CNC[C@@H]4Oc4cncc(F)c4)ncc32)ccn1 [Example 275, 1-{(3S,4S)-4-[(5-fluoropyridin-3-yl)oxy]pyrrolidin-3-yl}-3-[1-(2-methylpyridin-4-yl)-1H-pyrazolo[3,4-c]pyridin-5-yl]urea]",6.49
2,"Cc1cc(-n2ncc3cc(NC(=O)NCc4ccc(N5CCCC5=O)cc4)ncc32)ccn1 [Example 91, 1-[1-(2-methylpyridin-4-yl)-1H-pyrazolo[3,4-c]pyridin-5-yl]-3-[4-(2-oxopyrrolidin-1-yl)benzyl]urea]",6.48
3,"Cc1cc(-n2ncc3cc(NC(=O)NCC4(N(C)C)CCCCC4)ncc32)ccn1 [Example 100, 1-{[1-(dimethylamino)cyclohexyl]methyl}-3-[1-(2-methylpyridin-4-yl)-1H-pyrazolo[3,4-c]pyridin-5-yl)urea]",5.92
4,"CO[C@H]1CN(Cc2c(F)cccc2F)C[C@@H]1NC(=O)Nc1cc2cnn(-c3ccnc(C)c3)c2cn1 [Example 269, 1-[(3S,4S)-1-(2,6-difluorobenzyl)-4-methoxypyrrolidin-3-yl]-3-[1-(2-methylpyridin-4-yl)-1H-pyrazolo[3,4-c]pyridin-5-yl]urea]",8.27
5,"CNC(=O)c1cccc(CNC(=O)Nc2cc3cnn(-c4ccnc(C)c4)c3cn2)c1 [Example 97, N-methyl-3-[({[1-(2-methylpyridin-4-yl)-1H-pyrazolo[3,4-c]pyridin-5-yl]carbamoyl}amino)methyl] benzamide]",8.47
6,"Cc1cc(-n2ncc3cc(NC(=O)NCCC4CCOC4)ncc32)ccn1 (stereo not shown) [Example 83, 1-[1-(2-methylpyridin-4-yl)-1H-pyrazolo[3,4-c]pyridin-5-yl]-3-[2-(tetrahydrofuran-3-yl)ethyl]urea]",7.19
7,"Cc1cc(-n2ncc3cc(NC(=O)NC4CCCN(Cc5c(F)cccc5F)C4)ncc32)ccn1 (stereo not shown) [Example 266, 1-[1-(2,6-difluorobenzyl)piperidin-3-yl]-3-[1-(2-methylpyridin-4-yl)-1H-pyrazolo[3,4-c]pyridin-5-yl]urea]",8.56
8,"C[C@@H](NC(=O)Nc1cc2cnn(-c3ccncc3)c2cn1)c1ccc(F)cc1 [Example 7, 1-[(1R)-1-(4-fluorophenyl)ethyl]-3-(1-pyridin-4-yl-1H-pyrazolo[3,4-c]pyridin-5-yl)urea]",7.79
9,"Cc1cc(-n2ncc3cc(NC(=O)NC[C@H]4CCN(C)C4)ncc32)ccn1 [Example 289, 1-[1-(2-methylpyridin-4-yl)-1H-pyrazolo[3,4-c]pyridin-5-yl]-3-{[(3R)-1-methylpyrrolidin-3-yl]methyl}urea]",7.44
10,"Cc1cc(-n2ncc3cc(NC(=O)N[C@H]4CN(C)C[C@@H]4c4ccccc4C)ncc32)ccn1 (single isomer, unassigned) [Example 36, 1-[(3R,4S) or (3S, 4R)-1-methyl-4-(2-methylphenyl)pyrrolidin-3-yl]-3-[1-(2-methylpyridin-4-yl)-1H-pyrazolo[3,4-c]pyridin-5-yl)urea]",9.08
11,"Cc1cc(-n2ncc3cc(NC(=O)NC4CCC(c5ccccc5)C4)ncc32)ccn1 (stereo not shown) [Example 178, 1-[1-(2-methylpyridin-4-yl)-1H-pyrazolo[3,4-c]pyridin-5-yl]-3-(3-phenylcyclopentyl)urea]",7.43
12,"CNC(=O)c1ccc(CNC(=O)Nc2cc3cnn(-c4ccnc(C)c4)c3cn2)cc1 [Example 92, N-methyl-4-[({[1-(2-methylpyridin-4-yl)-1H-pyrazolo[3,4-c]pyridin-5-yl]carbamoyl}amino)methyl] benzamide]",6.10
13,"O=C(NCc1ccc(Cl)c(Cl)c1)Nc1cc2cnn(-c3ccncc3)c2cn1 [Example 12, 1-(3,4-dichlorobenzyl)-3-(1-pyridin-4-yl-1H-pyrazolo[3,4-c]pyridin-5-yl)urea]",9.05

# More lines, now with the values ahead:
row,pIC50,Structure (SMILES)
1,7.06,"Cc1cc(-n2ncc3cc(NC(=O)N[C@H](C)c4ccccc4)nc(CNCCN(C)C)c32)ccn1 [Example 322, 1-[7-({[2-(dimethylamino)ethyl]amino}methyl)-1-(2-methylpyridin-4-yl)-1H-pyrazolo[3,4-c]pyridin-5-yl]-3-[(1R)-1-phenylethyl]urea]"
2,9.02,"Cc1cc(-n2ncc3cc(NC(=O)N[C@H](C)c4cccc(Cl)c4)ncc32)ccn1 [Example 43, 1-[(1R)-1-(3-chlorophenyl)ethyl]-3-[1-(2-methylpyridin-4-yl)-1H-pyrazolo[3,4-c]pyridin-5-yl]urea]"
3,6.90,"C[C@@H](NC(=O)Nc1cc2cnn(C3CCCC3)c2c(CO)n1)c1ccccc1 [Example 307, 1-[1-cyclopentyl-7-(hydroxymethyl)-1H-pyrazolo[3,4-c]pyridin-5-yl]-3-[(1R)-1-phenylethyl]urea]"
4,7.92,"Cc1cc(-n2ncc3cc(NC(=O)N[C@H]4[C@H](c5ccccc5)CN(C)C45COC5)ncc32)ccn1 [Example 183, 1-[(7R,8S)-5-methyl-7-phenyl-2-oxa-5-azaspiro[3.4]oct-8-yl]-3-[1-(2-methylpyridin-4-yl)-1H-pyrazolo[3,4-c]pyridin-5-yl]urea]"
5,6.27,"Cn1ncc2cc(NC(=O)NC3CCCN(Cc4c(F)cccc4F)C3)ncc21 (stereo not shown) [Example 236, 1-[1-(2,6-difluorobenzyl)piperidin-3-yl]-3-(1-methyl-1H-pyrazolo[3,4-c]pyridin-5-yl)urea]"
6,6.71,"Cc1cc(-n2ncc3cc(NC(=O)NC4CC(=O)Nc5ccccc54)ncc32)ccn1 (stereo not shown) [Example 80, 1-[1-(2-methylpyridin-4-yl)-1H-pyrazolo[3,4-c]pyridin-5-yl]-3-(2-oxo-1,2,3,4-tetrahydroquinolin-4-yl)urea]"
7,5.96,"Cc1cc(-n2ncc3cc(NC(=O)NCc4ccc(-n5cccn5)cc4)ncc32)ccn1 [Example 76, 1-[1-(2-methylpyridin-4-yl)-1H-pyrazolo[3,4-c]pyridin-5-yl]-3-[4-(1H-pyrazol-1-yl)benzyl]urea]"
8,8.05,"Cc1cc(-n2ncc3cc(NC(=O)N[C@H]4CN(CC(F)(F)F)C[C@@H]4c4ccccc4)ncc32)ccn1 [Example 156, 1-[1-(2-methylpyridin-4-yl)-1H-pyrazolo[3,4-c]pyridin-5-yl]-3-[(3R,4S)-4-phenyl-1-(2,2,2-trifluoroethyl)pyrrolidin-3-yl)urea]"
9,6.96,"Cc1cc(-n2ncc3cc(NC(=O)N[C@H]4CN(C)C[C@@H]4C4CC4)ncc32)ccn1 [Example 30, 1-[(3R,4S)-4-cyclopropyl-1-methylpyrrolidin-3-yl]-3-[1-(2-methylpyridin-4-yl)-1H-pyrazolo[3,4-c]pyridin-5-yl]urea]"
